The values below come from patent US9040712B2, “Thiadiazole analogs thereof and methods for treating SMN-deficiency-related-conditions” (NOVARTIS AG, priority 2013, dated 2015).

The test system of the assay is SMN protein. As to the kind of experiment: cellular SMN ELISA (SMN protein elevation). The format is cell-based. The settings on record: myoblast cell line derived from SMNdelta7 mouse model; 24 hours compound treatment; concentration range 100 pM-10 uM. Here is the method: A cellular SMN ELISA was used to measure the effects of low molecular weight compounds on SMN protein elevation. Cells from a myoblast cell line derived from the SMNdelta7 mouse model (kind gift from Steve Burden, NYU) were seeded into a 384-well plate at a density of 3000 cells/well and treated with compounds for 24 hours. ELISA capture plates were prepared by coating 384-well plates (Immulon 4HBX) with 0.5 ug/mL of anti-SMN mAb (BD Science, Catalog number 610647) at 4° C. overnight. The plates were washed 5 times with 110 uL of PBS-Tween (0.05% Tween-20, PBST), blocked with 100 uL of 1% BSA in PBST for 2 hours and washed (5 times) with 100 uL of PBST. After 24 hours of compound treatment cells were lysed in a modified RIPA-buffer, on ice for 1 hour. 20 uL of lysate and 20 uL of 1% BSA were then added to the ELISA capture plates and incubated at 4° C. overnight. Plates were washed (5 times) with PBST and then incubated with 1:100 dilution of primary rabbit anti-SMN polyclonal antibody (Santa cruz, Catalog number SC-15320) at room temperature for 1 hour and subsequently washed (5 times) with 110 uL of PBST. This was followed by addition of 1:100 Goat anti-Rabbit IgG-HRP linked (Cell Signaling, Catalog number 7074) secondary antibody for 1 hour. Plates were then washed with PBST and incubated with 40 uL TMB substrate (Cell Signaling, Catalog number 7004L) at room temperature for 1-10 minutes with shaking. The reaction was stopped by addition of 40 uL of stop solution (Cell signaling, Catalog number 7002L) and absorption was measured at 450 nm. Data was reported as fold activation over DMSO control and EC50. ELISA assay condition: compound concentration range 100 pM-10 uM.

`COc1cc(-n2cccn2)ccc1-c1nnc(N(C)C2CC(C)(C)NC(C)(C)C2)s1` [Example 1, 5-(2-methoxy-4-(1H-pyrazol-1-yl)phenyl)-N-methyl-N-(2,2,6,6-tetramethylpiperidin-4-yl)-1,3,4-thiadiazol-2-amine]: a half-maximal effect (EC50) was put at 63 nM and the “SMN Activity Fold (fold activation over DMSO control)” value (“SMN Activity Fold” below) was 2.45 fold.
For `CN(c1nnc(-c2ccc3cc(O)ccc3c2)s1)C1CC(C)(C)NC(C)(C)C1` [Example 2, 6-(5-(Methyl(2,2,6,6-tetramethylpiperidin-4-yl)amino)-1,3,4-thiadiazol-2-yl)naphthalen-2-ol], in that order: 436 nM and 2.66 fold.
On the same counts, the results for `COc1nc2ccccc2cc1-c1nnc(N(C)C2CC(C)(C)NC(C)(C)C2)s1` [Example 3, 5-(2-Methoxyquinolin-3-yl)-N-methyl-N-(2,2,6,6-tetramethylpiperidin-4-yl)-1,3,4-thiadiazol-2-amine] are 337 nM and 2.67 fold.
For `COc1cc2ccccc2cc1-c1nnc(N(C)C2CC(C)(C)NC(C)(C)C2)s1` [Example 4, 5-(3-Methoxynaphthalen-2-yl)-N-methyl-N-(2,2,6,6-tetramethylpiperidin-4-yl)-1,3,4-thiadiazol-2-amine], in that order: 887 nM and 2.48 fold.
`COc1cc(-n2cccn2)ccc1-c1nnc(NC2CC(C)(C)N(C)C(C)(C)C2)s1` [Example 5, 5-(2-Methoxy-4-(1H-pyrazol-1-yl)phenyl)-N-(1,2,2,6,6-pentamethylpiperidin-4-yl)-1,3,4-thiadiazol-2-amine]: the EC50 stood at 87 nM and the “SMN Activity Fold” value came to 2.88 fold.
On the same counts, the results for `COc1cc(-c2cnn(C)c2)ccc1-c1nnc(N(C)C2CC(C)(C)NC(C)(C)C2)s1` [Example 6, 5-(2-Methoxy-4-(1-methyl-1H-pyrazol-4-yl)phenyl)-N-methyl-N-(2,2,6,6-tetramethylpiperidin-4-yl)-1,3,4-thiadiazol-2-amine] are 44 nM and 2.49 fold.
For `COc1cc(-c2cn[nH]c2)ccc1-c1nnc(N(C)C2CC(C)(C)NC(C)(C)C2)s1` [Example 7, 5-(2-Methoxy-4-(1H-pyrazol-4-yl)phenyl)-N-methyl-N-(2,2,6,6-tetramethylpiperidin-4-yl)-1,3,4-thiadiazol-2-amine], in that order: 38 nM and 2.86 fold.
On to `COc1cc(-c2ccn(C)c(=O)c2)ccc1-c1nnc(N(C)C2CC(C)(C)NC(C)(C)C2)s1` [Example 8, 4-(3-Methoxy-4-(5-(methyl(2,2,6,6-tetramethyl-piperidin-4-yl)amino)-1,3,4-thiadiazol-2-yl)phenyl)-1-methylpyridin-2(1H)-one], for which the EC50 was 134 nM and the “SMN Activity Fold” value is given as 3.20 fold.
Consider `COc1cc(-c2ccc(O)nc2)ccc1-c1nnc(N(C)C2CC(C)(C)NC(C)(C)C2)s1` [Example 9, 5-(3-Methoxy-4-(5-(methyl(2,2,6,6-tetramethyl-piperidin-4-yl)amino)-1,3,4-thiadiazol-2-yl)phenyl)pyridin-2-ol], for which the EC50 was 784 nM and the “SMN Activity Fold” value is given as 2.46 fold.
For `COc1cc(-c2ccc(=O)n(C)c2)ccc1-c1nnc(N(C)C2CC(C)(C)NC(C)(C)C2)s1` [Example 10, 5-(3-Methoxy-4-(5-(methyl(2,2,6,6-tetramethyl-piperidin-4-yl)amino)-1,3,4-thiadiazol-2-yl)phenyl)-1-methylpyridin-2(1H)-one], the EC50 was found to be 79 nM and the “SMN Activity Fold” value is 2.65 fold.
As to `Cc1cc(-c2cnn(C)c2)ccc1-c1nnc(N(C)C2CC(C)(C)NC(C)(C)C2)s1` [Example 11, N-Methyl-5-(2-methyl-4-(1-methyl-1H-pyrazol-4-yl)phenyl)-N-(2,2,6,6-tetramethylpiperidin-4-yl)-1,3,4-thiadiazol-2-amine], it took 684 nM to reach a half-maximal effect (EC50) and the “SMN Activity Fold” value is 2.84 fold.
